Laboratory results published in ChEMBL document CHEMBL5543174, “A Nonbactericidal Anionic Antimicrobial Peptide Provides Prophylactic and Therapeutic Efficacies against Bacterial Infections in Mice by Immunomodulatory-Antithrombotic Duality” (J Med Chem, 2024).
Calls of active or inactive are those of the source. No cut-off for these calls is given here.

Legend:
Neutrophil [1] = experiment: Induction of chemotaxis in mouse bone marrow derived neutrophil assessed as increase in neutrophil migration at 100 ug/ml preincubated with PTX for 30 mins followed by compound addition measured after 8 hrs by crystal violet staining based indirect transwell assay; format: functional, cell-based; conditions: dose 100.0 µg/ml
Neutrophil [2] = experiment: Induction of degranulation in mouse bone marrow derived neutrophil assessed as increase in BD-2 release at 25 to 100 ug/ml incubated for 6 hrs by ELISA; format: functional, cell-based; conditions: dose 25-100 µg/ml
Escherichia coli [3] = experiment: Antibacterial activity against Escherichia coli ATCC 25922 infected in C57BL/6 mouse assessed as reduction in inflammatory injury in lung at 10 mg/kg,ip administrated 5 hrs after bacterial infection measured after 24 hrs by hematoxylin and eosin staining based analysis; format: functional, organism-based; conditions: time 19.0 hrs
Escherichia coli [4] = experiment: Antimicrobial activity against Escherichia coli ATCC 25922 assessed as reduction in metabolic activity at < 200 ug/ml incubated for 1 to 4 hrs by CCK-8 assay; format: functional, organism-based; conditions: dose < 200.0 µg/ml, time 1-4 hrs
Mus musculus [5] = experiment: Immunomodulatory activity in clodronate liposome immunosuppressed C57BL/6 mouse with neutrophil depletion model assessed as change in T-lymphocytes in peritoneal lavage at 10 mg/kg,ip administration measured after 5 to 24 hrs by flow cytometry; format: functional, organism-based; conditions: time 5-24 hrs
Mus musculus [6] = experiment: Induction of chemotaxis in C57BL/6 mouse assessed as upregulation of CXCL1 expression in peritoneal lavage at 10 mg/kg,ip administration measured at 5 to 24 hrs by ELISA; format: functional, organism-based; conditions: time 5-24 hrs
[7] = test system: Peritoneal macrophage cell; experiment: Induction of chemotaxis in mouse Peritoneal macrophage assessed as increase in macrophage migration at 100 ug/ml preincubated with MTS510 for 30 mins followed by compound addition measured after 8 hrs by crystal violet staining based indirect transwell assay; format: functional, cell-based; conditions: dose 100.0 µg/ml
Staphylococcus aureus [8] = experiment: Antibacterial activity against Methicillin-resistant Staphylococcus aureus infected in C57BL/6 mouse assessed as reduction in inflammatory injury in lung at 10 mg/kg,ip administrated 5 hrs after bacterial infection measured after 24 hrs by hematoxylin and eosin staining based analysis; format: functional, organism-based; conditions: time 19.0 hrs
Mus musculus [9] = experiment: Anticoagulation activity in mouse infected with Methicillin-resistant Staphylococcus aureus assessed as increase in plasma AT-III expression at 10 mg/kg,ip pre-administrated 5 hrs before bacterial infection measured after 24 hrs by ELISA; format: functional, organism-based; conditions: time 29.0 hrs
Peritoneal macrophage [10] = experiment: Immunomodulatory activity in mouse Peritoneal macrophage assessed as decrease in LTA-induced IL-1beta production at 25 to 100 ug/ml incubated for 6 hrs by ELISA; format: functional, cell-based; conditions: dose 25-100 µg/ml
Peritoneal macrophage [11] = experiment: Immunomodulatory activity in mouse Peritoneal macrophage assessed as decrease in LPS-induced TNF-alpha production at 25 to 100 ug/ml incubated for 6 hrs by ELISA; format: functional, cell-based; conditions: dose 25-100 µg/ml
Peritoneal macrophage [12] = experiment: Induction of chemotaxis in mouse Peritoneal macrophage assessed as upregulation of MCP-1 gene expression incubated for 6 hrs by qPCR analysis; format: functional, cell-based
Escherichia coli [13] = experiment: Antibacterial activity against Carbapenem-resistant Escherichia coli infected in C57BL/6 mouse with clodronate liposome-induced monocyte depletion model assessed as decrease in bacterial burden in peritoneal cavity at 10 mg/kg,ip pre-administrated 5 hrs before bacterial infection measured after 24 hrs; format: functional, organism-based; conditions: time 29.0 hrs
Escherichia coli [14] = experiment: Antibacterial activity against Escherichia coli ATCC 25922 infected in C57BL/6 mouse assessed as reduction in bacterial load at 10 mg/kg,ip pre-administrated 5 hrs before bacterial infection; format: functional, organism-based
Staphylococcus aureus [15] = experiment: Antibacterial activity against Methicillin-resistant Staphylococcus aureus infected in C57BL/6 mouse assessed as reduction in IL-6 level in peritoneal fluid at 10 mg/kg,ip administrated 5 hrs after bacterial infection measured after 24 hrs by ELISA; format: functional, organism-based; conditions: time 19.0 hrs
Staphylococcus aureus [16] = experiment: Antibacterial activity against Methicillin-resistant Staphylococcus aureus infected in C57BL/6 mouse assessed as reduction in IL-6 level in serum at 10 mg/kg,ip administrated 5 hrs after bacterial infection measured after 24 hrs by ELISA; format: functional, organism-based; conditions: time 19.0 hrs
Peritoneal macrophage [17] = experiment: Immunoregulatory activity in mouse Peritoneal macrophage assessed as change in total ERK expression at 25 to 100 ug/ml incubated for 1 hr by Western blotting analysis; format: functional, cell-based; conditions: dose 25-100 µg/ml
Peritoneal macrophage [18] = experiment: Induction of chemotaxis in mouse Peritoneal macrophage assessed as upregulation of CXCL1 gene expression incubated for 6 hrs by qPCR analysis; format: functional, cell-based

## CC[C@H](C)[C@H](NC(=O)[C@@H]1CSSC[C@H](NC(=O)[C@H](CCC(=O)O)NC(=O)[C@@H](NC(=O)[C@H](CCCCN)NC(=O)[C@H](Cc2c[nH]cn2)NC(=O)[C@@H](NC(=O)[C@H](CCCCN)NC(=O)[C@H](CCC(=O)O)NC(=O)[C@H](C)NC(=O)[C@H](CCC(=O)O)NC(=O)[C@H](CCC(=O)O)NC(=O)[C@H](CCC(=O)O)NC(=O)[C@H](C)N)[C@@H](C)O)[C@@H](C)O)C(=O)N[C@@H](CC(C)C)C(=O)N[C@@H](CCC(=O)O)C(=O)N1)C(=O)N[C@@H](Cc1ccccc1)C(=O)N[C@H](C(=O)N[C@@H](CC(C)C)C(=O)N[C@@H](CC(C)C)C(=O)N1CCC[C@H]1C(=O)N1CCC[C@@H]1C(=O)N[C@H](C)C(=O)O)[C@@H](C)O
Neutrophil [1]
  Activity: inactive
Neutrophil [2]
  Activity: inactive
Escherichia coli [3]
  Activity: Active
Escherichia coli [4]
  Activity: inactive
Mus musculus [5]
  Activity: inactive
Mus musculus [6]
  Activity: inactive
[7]
  Activity: Active
Staphylococcus aureus [8]
  Activity: Active
Mus musculus [9]
  Activity: Active
Peritoneal macrophage [10]
  Activity: inactive
Peritoneal macrophage [11]
  Activity: inactive
Peritoneal macrophage [12]
  Activity: Dose-Dependent Effect
Escherichia coli [13]
  Activity: inactive
Escherichia coli [14]
  Activity: Active
Staphylococcus aureus [15]
  Activity: Active
Staphylococcus aureus [16]
  Activity: Active
Peritoneal macrophage [17]
  Activity: inactive
Peritoneal macrophage [18]
  Activity: Dose-Dependent Effect
